Literature values in patent US8748497B2, “Optimized fluorocarbon emulsions for blood substitutes and other therapeutic uses” (Alliance Pharmaceutical Corp., priority 2006, dated 2014).

Conditions: components of FLUOSOL; cited from earlier work

| Structure (SMILES) | rate constant for RES elimination (k24) |
| --- | --- |
| FC1(F)C(F)(F)C(F)(F)C2(F)C(F)(F)C(F)(F)C(F)(F)C(F)(F)C2(F)C1(F)F (centres unmarked) [F-decalin, perfluorodecalin] | 0.10 day⁻¹ |
| FC(F)(F)C(F)(F)C(F)(F)N(C(F)(F)C(F)(F)C(F)(F)F)C(F)(F)C(F)(F)C(F)(F)F [F-tripropylamine, perfluorotripropylamine] | 0.011 day⁻¹ |
